# According to PubChem BioAssay (NCI):
#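 Interpolation was linear, between the two tested concentrations surrounding the appropriate level; five concentrations were tested over 48 hours in 96-well plates. GI50 is the concentration that inhibits growth by half. TGI is the concentration that stops growth completely.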
# Assays:
# Assay in all cases: NCI anticancer screen, dose series, 48 h
# [1] = tested on: 786-0 renal
# [2] = tested on: A498 renal
# [3] = tested on: A549 NSCLC
# [4] = tested on: ACHN renal
# [5] = tested on: BT-549 breast
# [6] = tested on: CAKI-1 renal
# [7] = tested on: CCRF-CEM leukemia
# [8] = tested on: COLO 205 colon
# [9] = tested on: DU-145 prostate
# [10] = tested on: EKVX NSCLC
# [11] = tested on: HCC-2998 colon
# [12] = tested on: HCT-116 colon
# [13] = tested on: HCT-15 colon
# [14] = tested on: HL-60(TB) leukemia
# [15] = tested on: HOP-62 NSCLC
# [16] = tested on: HOP-92 NSCLC
# [17] = tested on: HS 578T breast
# [18] = tested on: HT29 colon
# [19] = tested on: IGROV1 ovarian
# [20] = tested on: K-562 leukemia
# [21] = tested on: KM12 colon
# [22] = tested on: LOX IMVI melanoma
# [23] = tested on: M14 melanoma
# [24] = tested on: MALME-3M melanoma
# [25] = tested on: MCF7 breast
# [26] = tested on: MDA-MB-231 breast
# [27] = tested on: MDA-MB-435
# [28] = tested on: MOLT-4 leukemia
# [29] = tested on: NCI-H226 lung
# [30] = tested on: NCI-H23 lung
# [31] = tested on: NCI-H460 lung
# [32] = tested on: NCI-H522 lung
# [33] = tested on: NCI/ADR-RES ovarian
# [34] = tested on: OVCAR-3 ovarian
# [35] = tested on: OVCAR-4 ovarian
# [36] = tested on: OVCAR-5 ovarian
# [37] = tested on: OVCAR-8 ovarian
# [38] = tested on: PC-3 prostate
# [39] = tested on: RPMI-8226 leukemia
# [40] = tested on: RXF 393 renal
# [41] = tested on: SF-268 CNS
# [42] = tested on: SF-295 CNS
# [43] = tested on: SF-539 CNS
# [44] = tested on: SK-MEL-2 melanoma
# [45] = tested on: SK-MEL-28 melanoma
# [46] = tested on: SK-MEL-5 melanoma
# [47] = tested on: SK-OV-3 ovarian
# [48] = tested on: SN12C renal
# [49] = tested on: SNB-19 CNS
# [50] = tested on: SNB-75 CNS
# [51] = tested on: SR leukemia
# [52] = tested on: SW-620 colon
# [53] = tested on: T-47D breast
# [54] = tested on: TK-10 renal
# [55] = tested on: U251 CNS
# [56] = tested on: UACC-257 melanoma
# [57] = tested on: UACC-62 melanoma
# [58] = tested on: UO-31 renal
structure (smiles),measurement,setting,value
CCOC(=O)c1sc(NCC(=O)Nc2cccc([N+](=O)[O-])c2)c(C(=O)OCC)c1C,GI50,[1],254 nM
same,TGI,[1],907 nM
same,GI50,[2],309 nM
same,TGI,[2],1160 nM
same,GI50,[3],461 nM
same,TGI,[3],3060 nM
same,GI50,[4],289 nM
same,TGI,[4],797 nM
same,GI50,[5],258 nM
same,TGI,[5],769 nM
same,GI50,[6],267 nM
same,TGI,[6],810 nM
same,GI50,[7],288 nM
same,GI50,[8],287 nM
same,TGI,[8],846 nM
same,GI50,[9],760 nM
same,TGI,[9],6320 nM
same,GI50,[10],1650 nM
same,TGI,[10],4530 nM
same,GI50,[11],1400 nM
same,TGI,[11],3470 nM
same,GI50,[12],303 nM
same,TGI,[12],1360 nM
same,GI50,[13],286 nM
same,TGI,[13],1840 nM
same,GI50,[14],464 nM
same,GI50,[15],1020 nM
same,TGI,[15],4130 nM
same,GI50,[16],221 nM
same,TGI,[16],873 nM
same,GI50,[17],270 nM
same,TGI,[17],1030 nM
same,GI50,[18],272 nM
same,TGI,[18],821 nM
same,GI50,[19],238 nM
same,TGI,[19],693 nM
same,GI50,[20],333 nM
same,TGI,[20],> 36700 nM
same,GI50,[21],539 nM
same,TGI,[21],3970 nM
same,GI50,[22],172 nM
same,TGI,[22],358 nM
same,GI50,[23],329 nM
same,TGI,[23],1300 nM
same,GI50,[24],231 nM
same,TGI,[24],598 nM
same,GI50,[25],274 nM
same,TGI,[25],1030 nM
same,GI50,[26],1230 nM
same,TGI,[26],3850 nM
same,GI50,[27],486 nM
same,TGI,[27],1760 nM
same,GI50,[28],342 nM
same,TGI,[28],> 33200 nM
same,GI50,[29],230 nM
same,TGI,[29],602 nM
same,GI50,[30],241 nM
same,TGI,[30],665 nM
same,GI50,[31],313 nM
same,TGI,[31],963 nM
same,GI50,[32],251 nM
same,TGI,[32],757 nM
same,GI50,[33],319 nM
same,TGI,[33],1580 nM
same,GI50,[34],376 nM
same,TGI,[34],1750 nM
same,GI50,[35],897 nM
same,TGI,[35],5180 nM
same,GI50,[36],283 nM
same,TGI,[36],824 nM
same,GI50,[37],375 nM
same,GI50,[38],229 nM
same,TGI,[38],598 nM
same,GI50,[39],366 nM
same,TGI,[39],1750 nM
same,GI50,[40],175 nM
same,TGI,[40],348 nM
same,GI50,[41],961 nM
same,TGI,[41],3740 nM
same,GI50,[42],543 nM
same,TGI,[42],3770 nM
same,GI50,[43],300 nM
same,TGI,[43],880 nM
same,GI50,[44],1770 nM
same,TGI,[44],4790 nM
same,GI50,[45],291 nM
same,TGI,[45],883 nM
same,GI50,[46],346 nM
same,TGI,[46],1230 nM
same,GI50,[47],307 nM
same,TGI,[47],838 nM
same,GI50,[48],285 nM
same,TGI,[48],930 nM
same,GI50,[49],496 nM
same,TGI,[49],4740 nM
same,GI50,[50],790 nM
same,TGI,[50],3440 nM
same,GI50,[51],354 nM
same,GI50,[52],325 nM
same,TGI,[52],1900 nM
same,GI50,[53],1270 nM
same,TGI,[53],3880 nM
same,GI50,[54],263 nM
same,TGI,[54],1270 nM
same,GI50,[55],274 nM
same,TGI,[55],1080 nM
same,GI50,[56],1060 nM
same,TGI,[56],5240 nM
same,GI50,[57],173 nM
same,TGI,[57],381 nM
same,GI50,[58],202 nM
same,TGI,[58],522 nM
